Source: US20040235733A1, “Methods and reagents for reducing polyglutamine toxicity” (priority 2003, published 2004)
Entries after “also recorded” stand apart in the source; their conditions may differ.

Target: T1, CRM-1 export receptor (Mus musculus, UniProt Q6P5F9)
T1 construct: NIH-3T3 cells were transfected with the indicated GFP reporter constructs; endogenous in cells; host or cells: NIH-3T3
Test: Leptomycin B Nuclear Export Signal Assay (GFP reporter localization by confocal microscopy)
Type: cell-based
Conditions: NIH-3T3 cells, 24 hrs post-transfection, 200 nM Leptomycin B for 2 hrs
Protocol: The Leptomycin B Nuclear Export Signal Assay used NIH-3T3 cells grown on glass coverslips (Fisher) and transfected using Lipofectamine 2000 according to the manufacturers protocol. Cells 24 hrs post-transfection were treated with 200 nM Leptomycin B (Sigma) or DMSO (Mock) for 2 hrs. Cells were fixed with 3% PFA and mounted using ProLong (Molecular Probes) mounting medium. Confocal microscopy was performed on a Zeiss LSM 510 confocal system using an Axiovert 100 M microscope and a Plan/Apochromat 100×/Oil objective.

T1 sequence (Q6P5F9 whole entry): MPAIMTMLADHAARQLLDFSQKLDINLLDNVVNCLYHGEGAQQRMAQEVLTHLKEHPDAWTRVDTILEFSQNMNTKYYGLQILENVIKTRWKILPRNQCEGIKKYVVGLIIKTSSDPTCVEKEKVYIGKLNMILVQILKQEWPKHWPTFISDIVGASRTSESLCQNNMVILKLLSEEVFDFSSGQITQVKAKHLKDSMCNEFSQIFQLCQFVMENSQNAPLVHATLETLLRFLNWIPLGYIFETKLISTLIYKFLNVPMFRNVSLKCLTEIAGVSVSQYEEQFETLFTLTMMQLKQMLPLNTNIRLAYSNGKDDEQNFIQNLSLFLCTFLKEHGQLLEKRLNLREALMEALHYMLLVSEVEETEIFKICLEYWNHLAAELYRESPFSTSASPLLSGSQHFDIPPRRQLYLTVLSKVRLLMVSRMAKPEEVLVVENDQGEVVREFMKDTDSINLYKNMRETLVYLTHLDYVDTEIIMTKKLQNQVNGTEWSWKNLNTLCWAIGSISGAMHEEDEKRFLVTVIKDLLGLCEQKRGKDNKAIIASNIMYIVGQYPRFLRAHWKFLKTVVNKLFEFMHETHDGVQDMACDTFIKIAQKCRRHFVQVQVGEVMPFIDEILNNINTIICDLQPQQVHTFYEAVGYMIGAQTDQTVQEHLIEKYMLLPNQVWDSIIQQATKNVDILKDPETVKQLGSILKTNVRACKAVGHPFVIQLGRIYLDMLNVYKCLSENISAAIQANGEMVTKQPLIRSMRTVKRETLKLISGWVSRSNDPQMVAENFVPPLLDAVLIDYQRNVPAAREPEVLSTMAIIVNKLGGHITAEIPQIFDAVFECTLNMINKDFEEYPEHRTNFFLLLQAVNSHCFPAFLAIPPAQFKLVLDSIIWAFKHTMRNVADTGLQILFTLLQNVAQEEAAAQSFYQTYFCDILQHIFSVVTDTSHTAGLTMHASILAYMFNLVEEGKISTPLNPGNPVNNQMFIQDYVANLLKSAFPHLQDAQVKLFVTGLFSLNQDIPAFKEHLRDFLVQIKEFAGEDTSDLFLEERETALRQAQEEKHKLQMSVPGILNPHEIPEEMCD

CCC(=C/[C@H](C)C/C=C/C(C)=C/[C@@H](C)C(=O)[C@@H](C)[C@H](O)[C@@H](C)C/C(C)=C/C(=O)O)/C=C/[C@@H]1OC(=O)C=C[C@@H]1C [LMB, Leptomycin B]
effect on localization of GFP or NLS-GFP: unaffected | effect on nuclear exclusion (cytoplasmic localization) of Htt 1-17-NLS-GFP: unaffected; also recorded: no effect | effect on nuclear exclusion of control NES-GFP: quite sensitive; also recorded: efficiently reversed
